Laboratory results published in patent US11324794B2, “Composition for preventing, improving, or treating decrease in intestinal function, comprising bamboo shoot hydrolyzate or fermented bamboo shoot as active ingredient” (OZLDNF CO., LTD., priority 2017, dated 2022).

How the values were obtained:
Sprague Dawley (SD) rat [1] = assay: Measurement of number of feces and feces weight change in loperamide-induced constipation; type: in vivo; conditions: oral
Excerpt: (§1) Laboratory […] under the following conditions were used. • Genealogy and Species: Sprague Dawley (SD) rat • Source: Samtaco Co., Ltd. • Number of purchased animals and gender: Male • Age (week) of purchased animals and weight range: 6 weeks, 190 to 220 • Number of animals (male) at the time of administration: 49 • Age (week) of animals and weight range at the time of administration: 7 weeks, 210 to 240 g.
(§2) After one week of acclimation, the test substance, that is, ioperamide as a conventional constipation inductive material, bisacodyl as a conventional constipation therapeutic agent, the enzyme-degraded products in Examples 1 and 2 (fermented for 24 hours) and the fermented products in Examples 3 and 4, respectively, were repeatedly administered in the stomach once a day for a total of 7 days by means of a syringe for oral administration (Sonde). Except for the control group (Con), all test groups were subjected to administration of loperamide (4 mg/kg) in order to induce constipation.
The feces were sampled daily and the number and weight of the feces were measured. Further, the sampled feces were dried in a drier at 70° C. for 24 hours.

Sprague Dawley (SD) rat [2] = assay: Measurement of water content of feces; type: in vivo; conditions: Bis group: loperamide 4 mg/kg + bisacodyl 4 mg/kg, oral; comparison group 29.98±1.89%
Excerpt: as §1, §2
The feces were sampled daily and the number and weight of the feces were measured. Further, the sampled feces were dried in a drier at 70° C. for 24 hours. A percentage of water content was calculated by subtracting the weight after drying from the weight before drying to estimate the water content and converting the estimated value as the percentage to a total weight of the feces.

Sprague Dawley (SD) rat [3] = assay: Digestive tract migration rate (activated charcoal); type: in vivo; conditions: oral, 7th day, 30 minutes after charcoal
Excerpt: as §1
as §2, with “Except for the control group (Con), all test groups were subjected to administration of loperamide (4 mg/kg) in order to induce constipation.” left out
After fasting a laboratory animal for 15 hours on the 7th day of constipation induction, a 0.5 ml suspension including 10% Arabic gum (Sigma, USA) and 5% activated charcoal (Sigma, USA) was orally administered to the animal. 30 minutes later, the animal was sacrificed, the gastrointestinal tract was removed, and a migration rate was calculated by dividing a length wherein green colored feces are excreted among the intestinal tract length between the duodenum and the rectum, with passage of time. […]

Sprague Dawley (SD) rat [4] = assay: Counting number of intestinal stools remaining in the colon tract; type: in vivo; conditions: oral, 8th day
Excerpt: as §1, §2
The number of intestinal stools was counted by scarifying a laboratory rat on the 8th day after administration of loperamide and observing the number of feces remaining in the colon tract.
On the last day of the experiment, all laboratory animals were sacrificed and the number of feces remaining in the rectal region was measured.

[5] = Measurement of body weight, dietary intake and amount of drinking water; type: in vivo, Sprague Dawley (SD) rat; conditions: Lop group: loperamide 4 mg/kg alone, oral
Excerpt: as §1
as §2, with “Except for the control group (Con), all test groups were subjected to administration of loperamide (4 mg/kg) in order to induce constipation.” left out
The body weight was measured twice a week on the day before the experiment when group separation was conducted, and twice a week on the day after administration, respectively. The experimental dietary intake was measured by feeding 100 g of test diet at a predetermined time and, after 24 hours, the remaining amount was measured to determine the dietary intake. The drinking water was fed by 250 ml at a predetermined time and the remaining water was measured on the next day to determine a total amount of the water intake. […]

[6] = Bis group: loperamide 4 mg/kg + bisacodyl 4 mg/kg

| SMILES | Weight of feces (Sprague Dawley (SD) rat [1]; [6]) [g] | Water content of the feces (Sprague Dawley (SD) rat [2]) [%] | Digestive tract migration rate (Sprague Dawley (SD) rat [3]; [6]) [%] | Number of feces remaining in the intestinal tract (Sprague Dawley (SD) rat [4]; [6]) | Body weight change (g) (B) − (A) ([5]; 7 days) | Body weight (g) After test (B) ([5]; once a day for 7 days) [g] | Number of feces (Sprague Dawley (SD) rat [1]; Lop group: loperamide 4 mg/kg alone, 7th day after induction of constipation, Con group 55.14±2.06) | Weight of feces (Sprague Dawley (SD) rat [1]; Lop group: loperamide 4 mg/kg alone, Con group 7.52±0.30 g) [g] | Digestive tract migration rate (Sprague Dawley (SD) rat [3]; Lop group: loperamide 4 mg/kg alone, Con group 68.63±2.72%) [%] | Number of feces remaining in the intestinal tract (Sprague Dawley (SD) rat [4]; Lop group: loperamide 4 mg/kg alone, Con group 1.86±0.55) |
| --- | --- | --- | --- | --- | --- | --- | --- | --- | --- | --- |
| CC(=O)Oc1ccc(C(c2ccc(OC(C)=O)cc2)c2ccccn2)cc1 [Bisacodyl] | 6.82 ± 0.35 | 44.02±1.34 | 65.02±2.86 | 3.62±0.86 | – | – | – | – | – | – |
| CN(C)C(=O)C(CCN1CCC(O)(c2ccc(Cl)cc2)CC1)(c1ccccc1)c1ccccc1 [Loperamide] | – | – | – | – | 73.45 ± 5.48 | 278.58 ± 6.82 | 44.40±2.54 | 5.02 ± 0.36 | 42.10±3.49 | 5.66±0.63 |
